According to patent publication US12084523B2, “Ubiquitin high affinity cyclic peptides and methods of use thereof” (TECHNION RESEARCH & DEVELOPMENT FOUNDATION LIMITED, priority 2018, dated 2024):

Columns and labels:
HeLa cells [1] = experiment: Annexin V-FITC FACS apoptosis analysis; type: cell-based, human; settings: 10 μM, 24 h and 48 h
Procedure: Fluorescence-Activated Cell Sorting (FACS) Analysis
Induction of apoptosis in Hela cells by treatment with cyclic peptides were determined after 24 and 48 hours incubation in a dose dependent manner, using annexin V-FITC apoptosis detection kit (BD Biosciences) according to the manufacturer s protocol. Two (2)×10^5 cells/well were seeded in 6-well plates and treated with an inhibitor for 24/48 hours in a dose dependent manner. The increase in fluorescence, which indicates the apoptosis level in the treated cells, were monitored using flow cytometry and compared to untreated cells containing DMSO as a negative control and MG132 as a positive control.
Given that Ub4ix has a pronounced inhibitory effect on the UPS system, the inventors further wanted to examine whether it inhibit cell growth and induce apoptosis in cancer cells. […] The effects of the cyclic peptides on apoptosis were evaluated using FACS analysis.

HeLa cells [2] = type: cell-based, human; settings: MTT
Procedure: Cell Viability Assays and Kinetic Experiments In order to assess the effect of the cyclic peptides on Hela cells, toxicity was determined using the MTT assay. Equal amounts of cells (8,000 cells/well) were plated in 96-well plates in triplicate. After 24 hours, attached cells were exposed to increasing concentrations of the cyclic peptides for another 24 hours. […] Optical density was recorded at 590 nm with a reference measurement at 630 nm.

USP2 [3] = experiment: In vitro deubiquitination assay, USP2 with K48-linked di-Ub; type: biochemical; settings: di-Ub as the substrate
Procedure: (§1) In Vitro Deubiquitination Assay
(§2) In vitro deubiquitination reactions were performed in a Tris buffer (50 mM TRIS, 1 mM TCEP, pH 7.7), containing 2 μM ^K48Ub2/4, then the specific DUB (50 mM Tris, 0.5 mM EDTA, 1 mM TCEP and 0.5 mg/ml ovalbumin, pH 7.5) was added. The reaction mixtures were incubated at 37° C. and at the indicated time points the reactions were stopped by taking aliquots and mixed them with 3× sample buffer and boiling. The same amounts were loaded on 14% SDS-PAGE, electro-blotted to nitrocellulose membrane and probed with an anti-Ub antibody. Bands were quantified with Image Quant LAS 4000 (GE Healthcare).
(§3) The inventors further chose to examine the effect of these cyclic peptides on two DUBs: OTUB1, a K48-linkage chain specific DUB, and USP2, which cleaves most Ub chains without specificity, using K48-linked di- and tetra-Ub chains as substrates.

[4] = test system: p53 and p27 in HeLa cells; experiment: Western blot of proteasomal substrates p53 and p27; type: cell-based, human
Procedure: (§4) FIGS. 5A-5F are images and graphs showing the uptake of Ub4ix by living cells and its cellular effect. (5A) is an image of the structure of fluorescein-5-maleimide-Ub4ix. (5B) is micrographs of HeLa cells incubated in the presence of DMSO (Negative control) or fluorescein-5-maleimide-Ub4ix cyclic peptide (20 μM). Internalization of the peptide into the cells was monitored at the indicated time points. Ub4ix induced the accumulation of Ub-conjugates, as a result of proteolysis inhibition. (5C) is an image of a western blot analysis of ubiquitinated proteins from HeLa cells which were incubated in the presence of Ub4ix, fluorescein-5-maleimide-Ub4ix, or MG132 for the indicated time-periods. Cells were lysed, resolved using SDS-PAGE, proteins were transferred to a nitrocellulose membrane, and the membrane was blotted using an antibody against Ub-conjugates (Ub conj), and Actin. (5D) is a graph of radio-labeled proteins from HeLa cells which were labeled with radioactive S-Met and S-Cys and were then chased for 4 hours in “cold” media. Cells were either non-treated (Control), or incubated in the presence of DMSO, Ub4ix, or MG132, at the indicated concentrations. Radioactivity levels, resulting from protein breakdown during the chase phase, were measured using a scintillation counter. […]

USP2 [5] = experiment: In vitro deubiquitination assay, USP2 with K48-linked tetra-Ub; type: biochemical; settings: tetra-Ub chain, after removal of the distal Ub (tri-Ub)
Procedure: as §1, §2, §3

[6] = test system: protein synthesis in HeLa cells; experiment: Radioactive pulse assay of protein synthesis; type: cell-based, human; settings: 35S-Met/Cys incorporation
Procedure: HeLa cells were incubated with either DMSO, ribosomal inhibitor cycloheximide (CHX), or Ub4ix. After 4 hours, media were replaced with media containing radioactive Methionine and Cysteine, and cells where pulsed for 4 hours. Cells were thoroughly washed, proteins were extracted from the cells, and the radioactive readings of each sample were measured using a scintillation counter, indicating the extent of incorporation of radiolabeled Methionine and Cysteine into newly synthesized proteins.
For the assay of inhibitions of protein synthesis, cells were incubated with DMSO, ribosomal inhibitor cycloheximide (CHX), or Ub4ix. After 4 hours, media were replaced with medium containing ^35S-methionine and cysteine (20 μCi) and cells where pulsed for 4 hours. Plates were extensively washed with ice-cold PBS and proteins were extracted from cells using trichloroacetic acid (TCA) precipitation. The radioactive readings were measured using a scintillation counter.

[7] = test system: cellular protein breakdown in HeLa cells; experiment: Radioactive pulse and chase, degradation-inhibition assay; type: cell-based, human; settings: 4 h chase, vs non-treated or DMSO
Procedure: Radioactive Pulse and Chase
For degradation-inhibition assays, cells were labeled with ^35S-methionine and cysteine (20 μCi) for 16 hours, followed by a chase in cold medium for 4 hours, in the presence of DMSO, proteasome inhibitor MG132, or Ub4ix. Media were then collected, and amino acids were extracted using TCA precipitation. Radioactive readings were measured using a scintillation counter.
In order to directly measure the effect of Ub4ix on proteolysis, the inventors employed radiolabeling of cellular proteins, followed by a chase experiment in the presence of either Ub4ix or the proteasome inhibitor MG132. […] The inventors validated this inhibitory effect on protein breakdown with known proteasomal substrates, the proteins p53, and p27, bona fide substrates of the UPS.

^K48Ub4 = target: T1, ^K48Ub4 (Homo sapiens, UniProt P0CG47); experiment: SPR binding of cyclic peptides to K48-linked tetra-ubiquitin; settings: SPR, target ^K48Ub4
T1 construct: solid phase peptide synthesis of Ub monomers (modified as required); made in house
Procedure: Surface Plasmon Resonance (SPR)
The interactions between cyclic peptides: U2i, U2ii, U4i, U4ix and Ub1, ^K48Ub2 and ^K48Ub4, were determined using BIACORE T100 instrument (GE healthcare) equipped with a biotin CAPture kit Series S chip. The buffer in all experiments contained 50 mM HEPES, pH 7.3, 150 mM NaCl, 0.05% Tween20, 2 mM DTT with 0.2% DMSO. Biotinylated Ub1, ^K48Ub2 and ^K48Ub4 were loaded to approximately equal molar amounts on the SPR chip, and various concentrations of cyclic peptides were flowed over at […] for 120 sec, before initiation of dissociation by flowing buffer over at […] for further 700 sec. Traces were fit to the simplest, two-state model for binding. Association was fit to a single exponential assuming pseudo-first order conditions, whereas the dissociation trace was fit to single exponential plus a drift term. Finally, due to the poor quality of the traces for U4ix binding ^K48Ub2, the amplitude of the association kinetic trace at different concentrations of peptide was fit to estimate the lower bound for KD.
Each peptide was flowed over Ub1, ^K48Ub2 and […] immobilized on SPR chips. There was no detectable binding to Ub1 for any of the peptides, as expected, as Ub1 binding was explicitly selected against during the RaPID protocol. […] However, Ub2i and Ub2ii also strongly bound ^K48Ub4, with a low apparent KD and an increased SPR response (FIG. 1E). This was consistent with a higher stoichiometry of binding to the tetramer, which could be explained by additional binding sites in ^K48Ub4. Indeed, the ^K48Ub2 structure can be superimposed twice on the ^K48Ub4 crystal structure (FIG. 10). […] However, similar to Ub2i and Ub2ii, Ub4i also bound ^K48Ub2. This was perhaps unsurprising, given the high sequence identity between Ub4i and Ub2i.

26S proteasome = experiment: In vitro proteasome degradation assay of HA-α-globin-K48-linked tetra-Ub; type: biochemical; settings: 5.3 μM peptide
[8] = test system: Ub-conjugates in HeLa cells; experiment: Western blot of cellular Ub-conjugates; type: cell-based, human
Procedure: as §4

koff (^K48Ub4): 0.021 s⁻¹
kon (^K48Ub4): 3.52e+06 M⁻¹ s⁻¹
SMILES: CC[C@H](C)[C@@H]1NC(=O)[C@H](Cc2c[nH]c3ccccc23)NC(=O)[C@H](Cc2c[nH]c3ccccc23)NC(=O)[C@H](CC(=O)O)NC(=O)CNC(=O)[C@H](CO)NC(=O)[C@H](CC(=O)O)NC(=O)[C@H](CC(=O)O)NC(=O)[C@H](CC(C)C)NC(=O)[C@H](Cc2ccc(O)cc2)NC(=O)[C@H](CC(C)C)NC(=O)[C@@H](Cc2c[nH]c3ccccc23)NC(=O)CSC[C@@H](C(=O)NCC(N)=O)NC1=O [Ub4ix]
apoptosis (HeLa cells [1]): clear increase in apoptosis
suppression of cell growth (HeLa cells [2]): most effective
inhibition of USP2 (USP2 [3]): minimal inhibition
p53 and p27 levels [4]: accumulated over time
inhibition of USP2 (USP2 [5]): strong inhibition
effect on protein synthesis [6]: does not interfere with protein synthesis
protein breakdown [7]: markedly reduced
inhibition of proteasomal degradation of α-globin-K48-linked tetra-Ub (26S proteasome): clear inhibition
cellular level of Ub-conjugates [8]: elevation in Ub-conjugates
